For this test, the target named is T1, Solute carrier family 2, facilitated glucose transporter member 4 (Rattus norvegicus) (UniProt P19357).
T1 sequence (whole entry): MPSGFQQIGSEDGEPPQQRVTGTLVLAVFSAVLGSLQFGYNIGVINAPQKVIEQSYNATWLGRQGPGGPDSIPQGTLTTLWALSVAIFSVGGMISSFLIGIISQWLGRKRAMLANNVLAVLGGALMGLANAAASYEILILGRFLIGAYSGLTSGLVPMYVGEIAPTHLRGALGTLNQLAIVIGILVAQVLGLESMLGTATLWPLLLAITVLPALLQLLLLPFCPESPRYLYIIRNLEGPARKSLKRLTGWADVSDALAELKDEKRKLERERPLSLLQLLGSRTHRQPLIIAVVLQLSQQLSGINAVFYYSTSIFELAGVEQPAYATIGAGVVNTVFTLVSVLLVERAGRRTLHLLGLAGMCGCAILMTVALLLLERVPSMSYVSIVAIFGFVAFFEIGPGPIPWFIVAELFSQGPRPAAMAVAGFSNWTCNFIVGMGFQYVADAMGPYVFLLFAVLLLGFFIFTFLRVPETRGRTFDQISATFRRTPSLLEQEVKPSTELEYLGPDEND
The test can be described thus: Enhancement of GLUT4 translocation in rat L6 cells expressing pIRAP-mOrange cDNAs at 10 uM after 10 mins by fluorescence assay relative to control. In kind it is cell-based.

The structures appear in SMILES notation. Calls of active or inactive are those of the source. The rule behind the calls is not given here.

Regarding `O=C(O)c1cc(O)c(O)c(O)c1`, the outcome was inactive.
As to `CC(C)CC1C2=C(Oc3cc(O)c(C(=O)CCc4ccccc4)c(O)c31)C(C)(C)C(=O)C(C)(C)C2=O` (racemic), the fold change (FC) was 0.49.
In the case of `O=C1c2c(O)cc(O)cc2O[C@@H](c2ccc(O)cc2)[C@@H]1O`, the outcome was inactive.
On the same count and under the same terms, with `O=c1c(O[C@@H]2O[C@H](CO)[C@@H](O)[C@H](O)[C@H]2O)c(-c2ccc(O)c(O)c2)oc2cc(O)cc(O)c12` the entry was “inactive”.
As for `C[C@H]1[C@H](C)CC[C@]2(C(=O)O)CC[C@]3(C)C(=CC[C@@H]4[C@@]5(C)C[C@@H](O)[C@H](O)[C@@](C)(CO)[C@@H]5CC[C@]43C)[C@H]12`, the fold change (FC) stood at 0.47.
Turning to `CC1(C)CC[C@]2(C(=O)O)CC[C@]3(C)C(=CC[C@@H]4[C@@]5(C)CC[C@H](O)C(C)(C)[C@@H]5CC[C@]43C)[C@@H]2C1`, the fold change (FC) was determined as 0.7.
The same measure, in the same setting: the result for `C=C(C)[C@@H]1CC[C@]2(C(=O)O)CC[C@]3(C)[C@H](CC[C@@H]4[C@@]5(C)CC[C@H](O)C(C)(C)[C@@H]5CC[C@]43C)[C@@H]12` reads 2.38; that for `C[C@H]1[C@H](C)CC[C@]2(C(=O)O)CC[C@]3(C)C(=CC[C@@H]4[C@@]5(C)CC[C@H](O)C(C)(C)[C@@H]5CC[C@]43C)[C@H]12`, 0.7; that for `C[C@@H]1CC[C@]2(C(=O)O)CC[C@]3(C)C(=CC[C@@H]4[C@@]5(C)C[C@@H](O)[C@@H](O)C(C)(C)[C@@H]5CC[C@]43C)[C@@H]2[C@]1(C)O`, 0.7.
Same read-out and setting: with `C[C@H]1[C@H](C)CC[C@]2(C(=O)O)CC[C@]3(C)C(=CC[C@@H]4[C@@]5(C)C[C@@H](O)[C@H](O)C(C)(C)[C@@H]5CC[C@]43C)[C@H]12` the figure was 1.78.
Regarding `O=c1c(OC2O[C@H](CO)[C@@H](O)[C@H](O)[C@H]2O)c(-c2cc(O)c(O)c(O)c2)oc2cc(O)cc(O)c12` (some centres not stated), the result was inactive.
In the case of `C[C@H]1[C@H](C)CC[C@]2(C(=O)O)CC[C@]3(C)C(=CC[C@@H]4[C@@]5(C)C[C@@H](O)[C@H](O)[C@@](C)(CO)[C@@H]5[C@H](O)C[C@]43C)[C@H]12`, the fold change (FC) came to 0.7.
